Results reported in ChEMBL document CHEMBL2010767, “Agonists for the Chemokine Receptor CXCR4” (ACS Med Chem Lett, 2011).
The source made the active and inactive calls. The calls are words filed in the database; no cut-off is given here.

Assays:
[1] = target: T1, C-X-C chemokine receptor type 4 (Homo sapiens, UniProt P61073); test: Displacement of [125I]-SDF-1alpha from human CXCR4 receptor expressed in HEK293 cells after 1 hr by gamma counting; format: cell-based
[2] = target: T1, C-X-C chemokine receptor type 4; test: Agonist activity at CXCR4 receptor in human REH cells assessed as induction of chemotactic migration after 3 hrs; format: functional, cell-based

T1 sequence (P61073 whole entry): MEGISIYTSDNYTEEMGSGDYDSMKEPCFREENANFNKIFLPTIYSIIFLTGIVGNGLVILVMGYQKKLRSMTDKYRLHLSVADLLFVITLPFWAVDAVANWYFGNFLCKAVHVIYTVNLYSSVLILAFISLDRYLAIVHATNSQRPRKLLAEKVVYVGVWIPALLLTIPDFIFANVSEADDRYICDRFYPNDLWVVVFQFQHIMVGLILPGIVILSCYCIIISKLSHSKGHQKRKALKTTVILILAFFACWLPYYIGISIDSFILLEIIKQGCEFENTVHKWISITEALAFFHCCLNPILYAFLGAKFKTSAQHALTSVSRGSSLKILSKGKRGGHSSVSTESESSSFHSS

IC50 [1] [nM]	Activity [2]	Compound
1.56		NCCCC[C@@H]1NC(=O)[C@H](CCCN=C(N)N)NC(=O)[C@H](Cc2ccc(O)cc2)NC(=O)[C@@H](NC(=O)[C@H](Cc2ccc3ccccc3c2)NC(=O)[C@H](CCCN=C(N)N)NC(=O)[C@@H](N)CCCN=C(N)N)CSSC[C@@H](C(=O)N[C@@H](CCCN=C(N)N)C(=O)O)CC(=O)[C@H](CCCNC(N)=O)NC(=O)[C@H](CCCN=C(N)N)NC(=O)[C@H](Cc2ccc(O)cc2)NC(=O)[C@@H]2CCCN2C(=O)[C@@H](CCCCN)NC1=O
	inactive	CC(C)C[C@H](NC(=O)[C@H](CO)NC(=O)[C@@H](NC(=O)[C@@H]1CCCN1C(=O)[C@@H](N)CCCCN)C(C)C)C(=O)N[C@@H](CO)C(=O)NCCCC[C@H](NC(=O)[C@@H]1CSSC[C@H](NC(=O)[C@H](Cc2ccc3ccccc3c2)NC(=O)[C@H](CCCNC(=N)N)NC(=O)[C@@H](N)CCCNC(=N)N)C(=O)N[C@@H](Cc2ccc(O)cc2)C(=O)N[C@@H](CCCNC(=N)N)C(=O)N[C@@H](CCCCN)C(=O)N[C@H](CCCCN)C(=O)N2CCC[C@H]2C(=O)N[C@@H](Cc2ccc(O)cc2)C(=O)N[C@@H](CCCNC(=N)N)C(=O)N[C@@H](CCCNC(N)=O)C(=O)C1)C(=O)O
5.67		CC(C)C[C@H](NC(=O)[C@H](CO)NC(=O)[C@@H](NC(=O)[C@@H]1CCCN1C(=O)[C@@H](N)CCCCN)C(C)C)C(=O)N[C@@H](CO)C(=O)N[C@@H](Cc1ccc(O)cc1)C(=O)N[C@@H](CCCN=C(N)N)C(=O)N[C@@H](CO)C(=O)NCCCC[C@H](NC(=O)[C@@H]1CSSC[C@H](NC(=O)[C@H](Cc2ccc3ccccc3c2)NC(=O)[C@H](CCCN=C(N)N)NC(=O)[C@@H](N)CCCN=C(N)N)C(=O)N[C@@H](Cc2ccc(O)cc2)C(=O)N[C@@H](CCCN=C(N)N)C(=O)N[C@@H](CCCCN)C(=O)N[C@H](CCCCN)C(=O)N2CCC[C@H]2C(=O)N[C@@H](Cc2ccc(O)cc2)C(=O)N[C@@H](CCCN=C(N)N)C(=O)N[C@@H](CCCN=C(N)N)C(=O)C1)C(=O)O
24.9		CC(C)C[C@H](NC(=O)[C@H](CO)NC(=O)[C@@H](NC(=O)[C@@H]1CCCN1C(=O)[C@@H](N)CCCCN)C(C)C)C(=O)N[C@@H](CO)C(=O)N[C@@H](Cc1ccc(O)cc1)C(=O)N[C@@H](CCCN=C(N)N)C(=O)N[C@@H](CO)C(=O)N[C@@H](C)C(=O)NCCCC[C@H](NC(=O)[C@@H]1CSSC[C@H](NC(=O)[C@H](Cc2ccc3ccccc3c2)NC(=O)[C@H](CCCN=C(N)N)NC(=O)[C@@H](N)CCCN=C(N)N)C(=O)N[C@@H](Cc2ccc(O)cc2)C(=O)N[C@@H](CCCN=C(N)N)C(=O)N[C@@H](CCCCN)C(=O)N[C@H](CCCCN)C(=O)N2CCC[C@H]2C(=O)N[C@@H](Cc2ccc(O)cc2)C(=O)N[C@@H](CCCN=C(N)N)C(=O)N[C@@H](CCCN=C(N)N)C(=O)C1)C(=O)O
21.7		CC(C)C[C@H](NC(=O)[C@H](CO)NC(=O)[C@@H](NC(=O)[C@@H]1CCCN1C(=O)[C@@H](N)CCCCN)C(C)C)C(=O)N[C@@H](CO)C(=O)N[C@@H](Cc1ccc(O)cc1)C(=O)N[C@@H](CCCN=C(N)N)C(=O)NCCCC[C@H](NC(=O)[C@@H]1CSSC[C@H](NC(=O)[C@H](Cc2ccc3ccccc3c2)NC(=O)[C@H](CCCN=C(N)N)NC(=O)[C@@H](N)CCCN=C(N)N)C(=O)N[C@@H](Cc2ccc(O)cc2)C(=O)N[C@@H](CCCN=C(N)N)C(=O)N[C@@H](CCCCN)C(=O)N[C@H](CCCCN)C(=O)N2CCC[C@H]2C(=O)N[C@@H](Cc2ccc(O)cc2)C(=O)N[C@@H](CCCN=C(N)N)C(=O)N[C@@H](CCCNC(N)=O)C(=O)C1)C(=O)O
1.36		CC(C)C[C@H](NC(=O)[C@H](CO)NC(=O)[C@@H](NC(=O)[C@@H]1CCCN1C(=O)[C@@H](N)CCCCN)C(C)C)C(=O)N[C@@H](CO)C(=O)N[C@@H](Cc1ccc(O)cc1)C(=O)N[C@@H](CCCN=C(N)N)C(=O)NCCCC[C@@H]1NC(=O)[C@H](CCCN=C(N)N)NC(=O)[C@H](Cc2ccc(O)cc2)NC(=O)[C@@H]2CCCN2C(=O)[C@@H](CCCCN)NC(=O)[C@H](CCCCN)NC(=O)[C@H](CCCN=C(N)N)NC(=O)[C@H](Cc2ccc(O)cc2)NC(=O)[C@@H](NC(=O)[C@H](Cc2ccc3ccccc3c2)NC(=O)[C@H](CCCN=C(N)N)NC(=O)[C@@H](N)CCCN=C(N)N)CSSC[C@@H](C(=O)N[C@@H](CCCN=C(N)N)C(=O)O)CC1=O
28.3	inactive	CC(C)C[C@H](NC(=O)[C@H](CO)NC(=O)[C@@H](NC(=O)[C@@H]1CCCN1C(=O)[C@@H](N)CCCCN)C(C)C)C(=O)N[C@@H](CO)C(=O)NCCCC[C@H](NC(=O)[C@@H]1CSSC[C@H](NC(=O)[C@H](Cc2ccc3ccccc3c2)NC(=O)[C@H](CCCNC(=N)N)NC(=O)[C@@H](N)CCCNC(=N)N)C(=O)N[C@@H](Cc2ccc(O)cc2)C(=O)N[C@@H](CCCNC(=N)N)C(=O)N[C@@H](CCCCN)C(=O)N[C@H](CCCCN)C(=O)N2CCC[C@H]2C(=O)N[C@@H](Cc2ccc(O)cc2)C(=O)N[C@@H](CCCNC(=N)N)C(=O)N[C@@H](CCCNC(=N)N)C(=O)C1)C(=O)O
16.5	inactive	CC(C)C[C@H](NC(=O)[C@H](CO)NC(=O)[C@@H](NC(=O)[C@@H]1CCCN1C(=O)[C@@H](N)CCCCN)C(C)C)C(=O)N[C@@H](CO)C(=O)N[C@@H](Cc1ccc(O)cc1)C(=O)N[C@@H](CCCNC(=N)N)C(=O)NCCCC[C@H](NC(=O)[C@@H]1CSSC[C@H](NC(=O)[C@H](Cc2ccc3ccccc3c2)NC(=O)[C@H](CCCNC(=N)N)NC(=O)[C@@H](N)CCCNC(=N)N)C(=O)N[C@@H](Cc2ccc(O)cc2)C(=O)N[C@@H](CCCNC(=N)N)C(=O)N[C@@H](CCCCN)C(=O)N[C@H](CCCCN)C(=O)N2CCC[C@H]2C(=O)N[C@@H](Cc2ccc(O)cc2)C(=O)N[C@@H](CCCNC(=N)N)C(=O)N[C@@H](CCCNC(=N)N)C(=O)C1)C(=O)O
21.2	inactive	CC(C)C[C@H](NC(=O)[C@H](CO)NC(=O)[C@@H](NC(=O)[C@@H]1CCCN1C(=O)[C@@H](N)CCCCN)C(C)C)C(=O)N[C@@H](CO)C(=O)N[C@@H](Cc1ccc(O)cc1)C(=O)N[C@@H](CCCNC(=N)N)C(=O)N[C@@H](CO)C(=O)NCCCC[C@H](NC(=O)[C@@H]1CSSC[C@H](NC(=O)[C@H](Cc2ccc3ccccc3c2)NC(=O)[C@H](CCCNC(=N)N)NC(=O)[C@@H](N)CCCNC(=N)N)C(=O)N[C@@H](Cc2ccc(O)cc2)C(=O)N[C@@H](CCCNC(=N)N)C(=O)N[C@@H](CCCCN)C(=O)N[C@H](CCCCN)C(=O)N2CCC[C@H]2C(=O)N[C@@H](Cc2ccc(O)cc2)C(=O)N[C@@H](CCCNC(=N)N)C(=O)N[C@@H](CCCNC(N)=O)C(=O)C1)C(=O)O
62		CC(C)C[C@H](NC(=O)[C@H](CO)NC(=O)[C@@H](NC(=O)[C@@H]1CCCN1C(=O)[C@@H](N)CCCCN)C(C)C)C(=O)N[C@@H](CO)C(=O)NCCCC[C@H](NC(=O)[C@@H]1CSSC[C@H](NC(=O)[C@H](Cc2ccc3ccccc3c2)NC(=O)[C@H](CCCN=C(N)N)NC(=O)[C@@H](N)CCCN=C(N)N)C(=O)N[C@@H](Cc2ccc(O)cc2)C(=O)N[C@@H](CCCN=C(N)N)C(=O)N[C@@H](CCCCN)C(=O)N[C@H](CCCCN)C(=O)N2CCC[C@H]2C(=O)N[C@@H](Cc2ccc(O)cc2)C(=O)N[C@@H](CCCN=C(N)N)C(=O)N[C@@H](CCCNC(N)=O)C(=O)C1)C(=O)O
